From patent publication US12668589B2, “N-formamidopyrazoline derivative as P2X3 receptor antagonist and use thereof” (HANGZHOU WESTAN PHARMACEUTICAL TECHNOLOGY CO., LTD, priority 2020, dated 2026) come the findings set out here.

One data set addresses T1, gpP2X3 (Cavia porcellus, UniProt H0VWY5).
T1 sequence (H0VWY5 1-391): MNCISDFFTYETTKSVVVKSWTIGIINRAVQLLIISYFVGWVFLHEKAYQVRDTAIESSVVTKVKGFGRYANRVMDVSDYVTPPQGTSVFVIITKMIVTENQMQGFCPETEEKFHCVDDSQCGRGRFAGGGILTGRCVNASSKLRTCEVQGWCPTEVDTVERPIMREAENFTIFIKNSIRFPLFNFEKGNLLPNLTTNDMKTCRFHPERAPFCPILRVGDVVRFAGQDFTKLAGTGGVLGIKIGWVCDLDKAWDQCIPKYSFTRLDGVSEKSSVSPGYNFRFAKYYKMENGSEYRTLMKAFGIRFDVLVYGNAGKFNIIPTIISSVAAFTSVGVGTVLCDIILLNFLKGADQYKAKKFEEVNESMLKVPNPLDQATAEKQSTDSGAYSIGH
In words: Inhibitory activity against P2X3 in guinea pigs (electrophysiological method). It counts as cell-based. As to conditions: guinea pig P2X3, electrophysiological method.

For the next data set, the target named is T2, rP2X3 (Rattus norvegicus, UniProt P49654).
T2 construct: expressed in transfected cells; host or cells: HEK293
T2 sequence (P49654 1-397): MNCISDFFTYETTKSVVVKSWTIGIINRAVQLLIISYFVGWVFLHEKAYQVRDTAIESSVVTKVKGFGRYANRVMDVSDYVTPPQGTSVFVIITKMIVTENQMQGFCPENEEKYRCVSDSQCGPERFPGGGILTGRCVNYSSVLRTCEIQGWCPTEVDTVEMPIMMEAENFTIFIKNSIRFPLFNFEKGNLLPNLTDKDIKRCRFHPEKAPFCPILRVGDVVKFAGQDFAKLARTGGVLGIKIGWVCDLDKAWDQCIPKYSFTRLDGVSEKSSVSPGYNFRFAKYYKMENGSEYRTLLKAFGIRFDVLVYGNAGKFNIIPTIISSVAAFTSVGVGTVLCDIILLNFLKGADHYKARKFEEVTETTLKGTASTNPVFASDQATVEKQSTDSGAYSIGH
In words: Inhibitory activity against P2X3 in rats (electrophysiological method). It counts as cell-based.

Data set [1] in a line: Liver microsomal enzyme stability test. As to conditions: Human liver microsomes 0.5 mg/mL, 1 μM compound, 1 mM NADPH, 37° C.; for half-life at 1 μM: read-out: t1/2 (=0.693/k, min). The class given is in vitro ADME. The method, then: An LC-MS/MS method, wherein A liquid phase method adopts a gradient elution method. Chromatographic Column: ACQUITY UPLC® BEH C18 (2.1 mm×50 mm, 1.7 μm); Flow Rate: 0.35 mL/min; Injection Volume: 1 μL (YS001), 3 μL (testosterone); Column Temperature: 40° C.; Automatic Sampler Temperature: 4° C.; Mobile Phase Compositions: mobile phase A: 0.1% formic acid water, and mobile phase B: acetonitrile. Mass spectrometry conditions adopt an ESI source, and positive ion and multiple reaction monitoring (MRM) modes were used for mass spectrometry analysis.
Liver microsome incubation samples were taken, in which 400 μL of an acetonitrile solution containing an internal standard (1 ng/mL loratadine) was added for a termination reaction. Even vortex mixing was conducted at 2,500 rpm. Centrifuging was conducted for 10 minutes at 20,000 rcf at 4° C. Supernatants were taken into clean lined tubes. Contents of prototype drugs were detected by LC-MS/MS.
Metabolic rate test: human liver microsomes were taken, unfrozen and thawed on ice, and gently shaken evenly. […] 80 μL of the above solution was pipetted, and pre-incubated for 5 minutes in a 37° C. water bath, then, 20 μL of a 5 mM NADPH solution was added, and incubating was conducted in a 37° C. water bath. […] After reaction for 0, 10, 30, 60, and 90 minutes, the reaction was terminated with 4 times the volume of acetonitrile (containing 1 ng/mL internal standard loratadine). Even vortex mixing was conducted. High-speed centrifuging was conducted for 10 minutes at 20,000 rcf at 4° C. Supernatants were taken for LC-MS/MS detection. Each incubation sample was subjected to a parallel test in triplicate. Positive control was metabolic samples of microsomes of corresponding species to a positive drug testosterone (1 μM). The reaction was terminated with 4 times the volume of acetonitrile (containing 1 ng/mL internal standard loratadine). Incubation time points were 0, 30, 60 minutes.
Analyst 1.6.3 software was used for data collecting. After integration parameters were optimized, target chromatographic peaks were automatically integrated, individual chromatographic peaks were not allowed to be integrated separately or manually, and retention time and a peak area were calculated. Data was collected by Analyst 1.6.3, and subjected to integration processing to obtain the retention time and the peak area, and a peak area ratio of an analyte to an internal standard was calculated. Then, Microsoft Office Excel was used for secondary processing to calculate a half-life period t1/2 and a clearance rate CLint thereof. A residual percentage (% Control) of tested compounds was calculated from a ratio of a concentration of a non-zero time point sample to a concentration of a zero-time sample. Ln (% Control) was plotted against incubation time and subjected to linear fitting. An elimination constant (ke, 1/min), an elimination half-life period (t1/2, min) and an in-vitro intrinsic clearance rate (CLint, μL/(mg·min)) of the tested compounds were calculated. T1/2=0.693/ke, CLint=ke/Cprotein (Note: ke is a slope, and Cprotein is a protein concentration.)

Another data set relates to taste of SD rats. The data set can be described thus: Rat taste test (quinine water / tap water drinking). It counts as in vivo. The following applies: 10 mg/kg intraperitoneal injection; for Water drinking amount, Tap water: free drinking 15 minutes, amounts measured to the nearest 0.1 mL; for Water drinking amount, Sum: tap plus quinine water; for Water drinking amount, Sum / Water drinking amount, Quinine: 15 minutes, measured to the nearest 0.1 mL; for Water drinking amount, Quinine: water with 0.3 mM quinine hydrochloride. On the procedure:
Experimental purpose: to observe an effect of title compounds on taste of SD rats.
• 1.1) Animals and grouping: 40 male SD rats, with about 300 grams per rat. […] A bottle of normal drinking water and a bottle of drinking water containing 0.3 mM quinine hydrochloride were placed in each cage at the same time, and left and right positions where the two bottles of water were placed in all animal feeding cages were the same. After the animals were allowed to freely drink water for 15 minutes, drinking amounts of the two bottles of water were measured respectively to the nearest 0.1 mL. • 1.5) Data statistics: drinking amounts of quinine bitter water and tap water and a total water drinking amount thereof as well as a percentage of quinine water in the total water drinking amount were counted respectively. Water drinking amounts of the bitter water of animals in each group were compared. Whether differences between groups were significant was compared by analysis of variance. 2) Experimental Results

`CCOC(=O)N(C)[C@H]1CN(C(=O)N[C@H](C)c2cnc(C(F)(F)F)nc2)N=C1c1ccc(C)cc1` [Compound 4, (S)-4-(N-methyl-N-ethoxycarbonylamino)-3-(4-methylphenyl)-N-((R)-1-(2-(trifluoromethyl)pyrimidin-5-yl)ethyl)-4,5-dihydro-1H-pyrazol-1-carboxamide] gave an IC50 against gpP2X3 of 421 nM. For the same molecule, at rP2X3, half-maximal inhibition (IC50) was put at 165 nM. Besides, in data set [1], the “Clint, microsome (=k/Cprotein, μL × min^−1 × mg^−1 proteins)” value is 3.8 μL × min^−1 × mg^−1 proteins; the “ke (=−slope, min^−1)” value worked out at 0.0019 min⁻¹; the half-life at 1 μM was 364 min. In the data set on taste of SD rats, the “Water drinking amount, Tap water” value was found to be 11.84; the “Water drinking amount, Sum” value amounted to 13.87; the “Water drinking amount, Quinine” value is given as 2.03.
In the case of `Cc1ccc(C2=NN(C(=O)N[C@H](C)c3ccc(C(F)(F)F)nc3)C[C@@H]2N2CCOC2=O)cc1` [Compound 22], at gpP2X3, the half-maximal inhibitory concentration (IC50) stood at 297 nM. The midpoint of inhibition at rP2X3, the IC50, lay at 90 nM. In data set [1], the “Clint, microsome (=k/Cprotein, μL × min^−1 × mg^−1 proteins)” value is recorded as 21.4 μL × min^−1 × mg^−1 proteins; the “ke (=−slope, min^−1)” value came to 0.0107 min⁻¹; the half-life at 1 μM was found to be 64.8 min. In addition, in the data set on taste of SD rats, the “Water drinking amount, Tap water” value was 12.26; the “Water drinking amount, Sum” value came to 14.13; the “Water drinking amount, Quinine” value is reported as 1.87.
